Measurements published in patent publication US11186577B2, “Vasopressin receptor antagonists and products and methods related thereto” (BlackThorn Therapeutics, Inc., priority 2017, dated 2021).
Where two headings read alike, the source gives them in different places.

Assays:
Format in all cases: in vitro ADME
MDR1 (P-glycoprotein) = experiment: MDR1-MDCK effective efflux assay (Transwell, 10 μM, 1 hour), MDR1-MDCK cells; details: dog
In short: (§1)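 Wild-type and MDR1-MDCK monolayers cultured 3 days were dosed with compound at 10 μM (0.1% DMSO) in HBSS/25 mM HEPES pH 7.4, in both A>B and B>A directions, for 1 h at 37 °C. Samples were quantified by LC-MS/MS to give Papp and efflux ratio. Effective efflux ratio = ER(MDR1-MDCK)/ER(wild-type); Lucifer Yellow checked monolayer integrity.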

[1] = MDR1-MDCK effective efflux assay (Transwell, 10 μM, 1 hour), wild-type MDCK cells; details: dog, MDCK
In short: as §1

MDR1-MDCK cells = experiment: MDR1-MDCK effective efflux assay (Transwell, 10 μM, 1 hour), MDR1-MDCK cells; details: for MDR1 EER / MDR1 ER: MDCK-MDR1; for Papp AB MDR1: MDR1-MDCK cells, apical to basolateral (A>B), 10 μM, 1 hour
In short: as §1

[2] = test system: wild-type (WT) MDCK cells; experiment: MDR1-MDCK effective efflux assay (Transwell, 10 μM, 1 hour), wild-type MDCK cells; details: for WT ER: MDCK; for Papp AB WT: wild-type MDCK cells, apical to basolateral (A>B), 10 μM, 1 hour
In short: as §1

[3] = MDCK-MDR1, pH 7.4, MDR1-MDCK cells, apical to basolateral (A>B), 10 μM, 1 hour, read-out: Papp AB MDR1
[4] = pH 7.4, wild-type MDCK cells, apical to basolateral (A>B), 10 μM, 1 hour, read-out: Papp AB WT
[5] = MDCK-MDR1, pH 7.4, Papp AB MDR1

| SMILES | Papp A→B at 1 h, 10 μM (MDR1 (P-glycoprotein); [3]) [×10⁻⁶ cm/s] | Papp A→B at 1 h, 10 μM [1, 4] [×10⁻⁶ cm/s] | Papp AB MDR1 (MDR1-MDCK cells) | Papp AB WT [2] | also measured |
| --- | --- | --- | --- | --- | --- |
| CCOC(=O)N1Cc2cc(Cl)ccc2-n2c(C3CC4(C3)CN(c3ccc(F)cn3)C4)nnc2C1C (stereo not drawn) [compound 169] | > 20 | > 20 |  |  |  |
| CC(C)OC(=O)N1Cc2cc(Cl)ccc2-n2c(nnc2C2CC3(C2)CN(C(=O)C2CC2)C3)C1 [compound 153] |  |  |  |  | Papp A→B at 1 h, 10 μM (MDR1 (P-glycoprotein); [5]): < 7 ×10⁻⁶ cm/s; MDR1 EER (MDR1-MDCK cells): +; MDR1 ER (MDR1-MDCK cells): +; Papp A→B at 1 h, 10 μM ([1]; pH 7.4, Papp AB WT): > 20 ×10⁻⁶ cm/s; WT ER [2]: ++ |
| CCOC(=O)N1Cc2cc(Cl)ccc2-n2c(C3CC4(C3)CN(c3ccc(F)cn3)C4)nnc2C1C (single isomer, unassigned) [Cpd 169A] |  |  | ++++ ((++++) denotes >20 (10^-6 cm/sec)) | ++++ ((++++) denotes >20 (10^-6 cm/sec)) |  |
| CN1Cc2cc(Cl)ccc2-n2c(nnc2C2CC3(C2)CN(c2cccc(F)n2)C3)C1 [compound 8] |  |  |  |  | Papp A→B at 1 h, 10 μM (MDR1 (P-glycoprotein); [5]): > 20 ×10⁻⁶ cm/s; MDR1 EER (MDR1-MDCK cells): +++; MDR1 ER (MDR1-MDCK cells): +++; Papp A→B at 1 h, 10 μM ([1]; pH 7.4, Papp AB WT): > 20 ×10⁻⁶ cm/s; WT ER [2]: ++++ |
| CC1c2nnc(C3CC4(C3)CN(c3ncc(F)cn3)C4)n2-c2ccc(Cl)cc2CN1C(=O)OC1(C)CC1 (stereo not drawn) [compound 173] | > 20 | > 20 |  |  |  |
| CCC(=O)N1Cc2cc(Cl)ccc2-n2c(nnc2C2CC3(C2)CN(c2ccc(F)cn2)C3)C1 [compound 72] | < 7 | > 20 |  |  |  |
| CC(C)C(=O)N1Cc2cc(Cl)ccc2-n2c(nnc2C2CC3(C2)CN(c2ccc(F)cn2)C3)C1 [compound 63] | < 7 | > 20 |  |  |  |
| CCOC(=O)N1Cc2cc(Cl)ccc2-n2c(C3CC4(C3)CN(c3ncc(F)cn3)C4)nnc2C1C (stereo not drawn) [compound 172] |  |  |  |  | Papp A→B at 1 h, 10 μM (MDR1 (P-glycoprotein); [5]): > 20 ×10⁻⁶ cm/s; MDR1 EER (MDR1-MDCK cells): ++; MDR1 ER (MDR1-MDCK cells): ++; Papp A→B at 1 h, 10 μM ([1]; pH 7.4, Papp AB WT): > 20 ×10⁻⁶ cm/s; WT ER [2]: ++++ |
| CC1c2nnc(C3CC4(C3)CN(c3ccc(F)cn3)C4)n2-c2ccc(Cl)cc2CN1C(=O)C(C)(C)F (single isomer, unassigned) [Cpd 178A] |  |  | ++++ ((++++) denotes >20 (10^-6 cm/sec)) | ++++ ((++++) denotes >20 (10^-6 cm/sec)) |  |
| COC(=O)N1Cc2cc(Cl)ccc2-n2c(C3CC4(C3)CN(c3ccc(F)cn3)C4)nnc2C1C (stereo not drawn) [compound 142, methyl 8-chloro-1-(2-(5-fluoropyridin-2-yl)-2-azaspiro[3.3]heptan-6-yl)-4-methyl-4H-benzo[f][1,2,4]triazolo[4,3-a][1,4]diazepine-5(6H)-carboxylate] |  |  |  |  | Papp A→B at 1 h, 10 μM (MDR1 (P-glycoprotein); [5]): > 20 ×10⁻⁶ cm/s; MDR1 EER (MDR1-MDCK cells): +; MDR1 ER (MDR1-MDCK cells): ++; Papp A→B at 1 h, 10 μM ([1]; pH 7.4, Papp AB WT): > 20 ×10⁻⁶ cm/s; WT ER [2]: ++++ |
| CC1c2nnc(C3CC4(C3)CN(c3ccc(F)cn3)C4)n2-c2ccc(Cl)cc2CN1C(=O)C1(F)CC1 (stereo not drawn) [compound 174] | > 20 | > 20 |  |  |  |
| CCOC(=O)N1Cc2cc(Cl)ccc2-n2c(nnc2C2CC3(C2)CN(c2ccc(F)cn2)C3)C1 [compound 69] | > 20 | > 20 |  |  |  |
| FC(F)CN1Cc2cc(Cl)ccc2-n2c(nnc2C2CC3(C2)CN(c2ccccn2)C3)C1 [compound 52] | 10 to 20 | > 20 |  |  |  |
| CC1c2nnc(C3CC4(C3)CN(c3ccccn3)C4)n2-c2ccc(Cl)cc2CN1C(=O)C1(F)CC1 (single isomer, unassigned) [Cpd 181A] |  |  | ++++ ((++++) denotes >20 (10^-6 cm/sec)) | ++++ ((++++) denotes >20 (10^-6 cm/sec)) |  |
| O=C(C(F)F)N1Cc2cc(Cl)ccc2-n2c(nnc2C2CC3(C2)CN(c2ccccn2)C3)C1 [compound 122] | 7 to 10 | > 20 |  |  |  |
| CC(C)OC(=O)N1Cc2cc(Cl)ccc2-n2c(C3CC4(C3)CN(c3ncc(F)cn3)C4)nnc2C1C (single isomer, unassigned) [Cpd 201A] |  |  | ++++ ((++++) denotes >20 (10^-6 cm/sec)) | ++++ ((++++) denotes >20 (10^-6 cm/sec)) |  |
| CC1c2nnc(C3CC4(C3)CN(c3cnccn3)C4)n2-c2ccc(Cl)cc2CN1C(=O)C1(F)CC1 (stereo not drawn) [compound 177] |  |  |  |  | Papp A→B at 1 h, 10 μM (MDR1 (P-glycoprotein); [5]): < 7 ×10⁻⁶ cm/s; MDR1 EER (MDR1-MDCK cells): +; MDR1 ER (MDR1-MDCK cells): +; Papp A→B at 1 h, 10 μM ([1]; pH 7.4, Papp AB WT): > 20 ×10⁻⁶ cm/s; WT ER [2]: +++ |
| CC(CF)OC(=O)N1Cc2cc(Cl)ccc2-n2c(nnc2C2CC3(C2)CN(c2ccc(F)cn2)C3)C1 (stereo not drawn) [compound 78] | > 20 | > 20 |  |  |  |

| SMILES | Papp A→B at 1 h, 10 μM (MDR1 (P-glycoprotein); [3]) [×10⁻⁶ cm/s] | Papp A→B at 1 h, 10 μM [1, 4] [×10⁻⁶ cm/s] | Papp AB MDR1 (MDR1-MDCK cells) | Papp AB WT [2] | also measured |
| --- | --- | --- | --- | --- | --- |
| CC(C)OC(=O)N1Cc2cc(Cl)ccc2-n2c(C3CC4(C3)CN(c3ncccn3)C4)nnc2C1C (single isomer, unassigned) [Cpd 167A] |  |  | ++++ ((++++) denotes >20 (10^-6 cm/sec)) | ++++ ((++++) denotes >20 (10^-6 cm/sec)) |  |
| O=C(OC1CC1)N1Cc2cc(Cl)ccc2-n2c(nnc2C2CC3(C2)CN(c2ccc(F)cn2)C3)C1 [compound 90] | > 20 | > 20 |  |  |  |
| Clc1ccc2c(c1)CN(C1CC1)Cc1nnc(C3CC4(C3)CN(c3ccccn3)C4)n1-2 [compound 56] | > 20 | > 20 |  |  |  |
| CC1c2nnc(C3CC4(C3)CN(c3ncccn3)C4)n2-c2ccc(Cl)cc2CN1C(=O)OC1CC1 (single isomer, unassigned) [Cpd 171A] |  |  | + ((+) denotes an apparent permeability <7 (10^-6 cm/sec)) | ++++ ((++++) denotes >20 (10^-6 cm/sec)) |  |
| COC(=O)N1Cc2cc(Cl)ccc2-n2c(nnc2C2CC3(C2)CN(c2ccccn2)C3)C1 [compound 70] | 10 to 20 | > 20 |  |  |  |
| CC1c2nnc(C3CC4(C3)CN(c3ncccn3)C4)n2-c2ccc(Cl)cc2CN1C(=O)OC(CF)CF (single isomer, unassigned) [Cpd 202A] |  |  | + ((+) denotes an apparent permeability <7 (10^-6 cm/sec)) | ++++ ((++++) denotes >20 (10^-6 cm/sec)) |  |
| O=C(OC(CF)CF)N1Cc2cc(Cl)ccc2-n2c(nnc2C2CC3(C2)CN(c2ccc(F)cn2)C3)C1 [compound 79] | 10 to 20 | > 20 |  |  |  |
| COC(=O)N1Cc2cc(Cl)ccc2-n2c(C3CC4(C3)CN(c3cccc(C)n3)C4)nnc2C1C (stereo not drawn) [compound 180] | > 20 | > 20 |  |  |  |
| CC(=O)N1Cc2cc(Cl)ccc2-n2c(nnc2C2CC3(C2)CN(c2ccc(F)cn2)C3)C1 [compound 64] | < 7 | 10 to 20 |  |  |  |
| COC(=O)N1Cc2cc(Cl)ccc2-n2c(nnc2C2CC3(C2)CN(c2ccc(F)cn2)C3)C1 [compound 61] | 10 to 20 | > 20 |  |  |  |
| CC1c2nnc(C3CC4(C3)CN(c3ncc(F)cn3)C4)n2-c2ccc(Cl)cc2CN1C(=O)OC1CC1 (single isomer, unassigned) [Cpd 192A] |  |  | ++++ ((++++) denotes >20 (10^-6 cm/sec)) | ++++ ((++++) denotes >20 (10^-6 cm/sec)) |  |
| CC1c2nnc(C3CC4(C3)CN(c3ccc(F)cn3)C4)n2-c2ccc(Cl)cc2CN1C(=O)OC1CC1 (single isomer, unassigned) [Cpd 191A] |  |  | ++++ ((++++) denotes >20 (10^-6 cm/sec)) | ++++ ((++++) denotes >20 (10^-6 cm/sec)) |  |
| CCOC(=O)N1Cc2cc(Cl)ccc2-n2c(C3CC4(C3)CN(c3ncccn3)C4)nnc2C1C (single isomer, unassigned) [Cpd 168A] |  |  | ++++ ((++++) denotes >20 (10^-6 cm/sec)) | ++++ ((++++) denotes >20 (10^-6 cm/sec)) |  |
| COC(=O)N1Cc2cc(Cl)ccc2-n2c(C3CC4(C3)CN(c3cnccn3)C4)nnc2C1C (single isomer, unassigned) [Cpd 165A] |  |  | + ((+) denotes an apparent permeability <7 (10^-6 cm/sec)) | ++++ ((++++) denotes >20 (10^-6 cm/sec)) |  |
| FCCN1Cc2cc(Cl)ccc2-n2c(nnc2C2CC3(C2)CN(c2ccccn2)C3)C1 [compound 59] | 7 to 10 | > 20 |  |  |  |
| CC1c2nnc(C3CC4(C3)CN(c3ccc(F)cn3)C4)n2-c2ccc(Cl)cc2CN1C(=O)C1(F)CC1 (single isomer, unassigned) [Cpd 174A] |  |  | ++++ ((++++) denotes >20 (10^-6 cm/sec)) | ++++ ((++++) denotes >20 (10^-6 cm/sec)) |  |
| COC(=O)N1Cc2cc(Cl)ccc2-n2c(C3CC4(C3)CN(c3cnccn3)C4)nnc2C1C (stereo not drawn) [compound 165] | 7 to 10 | > 20 |  |  |  |
| COC(=O)N1Cc2cc(Cl)ccc2-n2c(C3CC4(C3)CN(c3ncccc3F)C4)nnc2C1C (stereo not drawn) [compound 182] | > 20 | > 20 |  |  |  |
